In US12655106B2 (Eikonizo Therapeutics, Inc., priority 2021, dated 2026):

Tests used:
Full length Human HDAC6 = biological target: T1, Full length Human HDAC6 (Homo sapiens, UniProt Q9UBN7); assay: Caliper endpoint assay for HDAC enzymatic activity (HDAC6); type: biochemical; conditions: for IC50: in vitro enzymatic, Caliper endpoint assay, 30 min pre-incubation, 1 μM substrate peptide; for Selectivity (6 v 8): ratio of HDAC8 IC50/HDAC6 IC50
T1 construct: Full length Human HDAC6; FLAG (C); host or cells: baculovirus expression system
T1 sequence (Q9UBN7 1-1215): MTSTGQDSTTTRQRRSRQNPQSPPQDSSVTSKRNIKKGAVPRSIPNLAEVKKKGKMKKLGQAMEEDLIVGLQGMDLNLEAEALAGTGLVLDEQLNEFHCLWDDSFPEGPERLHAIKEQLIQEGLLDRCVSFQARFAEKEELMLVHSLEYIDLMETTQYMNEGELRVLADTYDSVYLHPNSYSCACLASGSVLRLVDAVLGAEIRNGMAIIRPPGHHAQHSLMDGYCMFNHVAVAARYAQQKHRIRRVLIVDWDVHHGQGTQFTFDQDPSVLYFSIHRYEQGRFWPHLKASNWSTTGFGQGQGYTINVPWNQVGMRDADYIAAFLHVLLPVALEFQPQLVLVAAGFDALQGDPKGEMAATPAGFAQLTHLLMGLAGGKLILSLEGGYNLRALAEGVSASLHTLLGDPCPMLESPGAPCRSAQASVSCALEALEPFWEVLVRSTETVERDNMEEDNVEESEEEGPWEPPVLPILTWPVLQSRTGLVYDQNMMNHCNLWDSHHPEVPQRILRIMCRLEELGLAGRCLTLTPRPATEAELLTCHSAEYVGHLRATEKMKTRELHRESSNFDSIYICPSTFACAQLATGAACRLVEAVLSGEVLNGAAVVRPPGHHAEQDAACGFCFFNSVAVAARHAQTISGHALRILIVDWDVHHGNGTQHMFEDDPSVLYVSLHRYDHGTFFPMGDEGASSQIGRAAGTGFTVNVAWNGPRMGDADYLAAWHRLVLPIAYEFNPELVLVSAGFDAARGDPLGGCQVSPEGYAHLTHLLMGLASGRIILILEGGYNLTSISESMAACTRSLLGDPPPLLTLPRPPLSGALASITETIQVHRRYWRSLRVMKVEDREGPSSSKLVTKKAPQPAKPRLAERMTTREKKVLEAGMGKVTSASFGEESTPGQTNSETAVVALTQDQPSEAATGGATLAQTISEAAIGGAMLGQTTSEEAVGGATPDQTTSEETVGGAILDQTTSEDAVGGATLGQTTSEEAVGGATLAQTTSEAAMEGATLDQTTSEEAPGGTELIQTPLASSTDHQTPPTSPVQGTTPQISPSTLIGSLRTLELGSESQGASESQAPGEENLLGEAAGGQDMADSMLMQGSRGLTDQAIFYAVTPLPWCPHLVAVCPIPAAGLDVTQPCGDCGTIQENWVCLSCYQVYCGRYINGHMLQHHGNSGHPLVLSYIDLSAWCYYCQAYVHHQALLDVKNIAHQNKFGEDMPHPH

Full length Human HDAC8 = biological target: T2, Full length Human HDAC8 (Homo sapiens, UniProt Q9BY41); assay: Caliper endpoint assay for HDAC enzymatic activity (HDAC8); type: biochemical; conditions: in vitro enzymatic, 30 min pre-incubation, 1 μM substrate peptide
T2 construct: Full length Human HDAC8; HIS (N); host or cells: baculovirus expression system
T2 sequence (Q9BY41 1-377): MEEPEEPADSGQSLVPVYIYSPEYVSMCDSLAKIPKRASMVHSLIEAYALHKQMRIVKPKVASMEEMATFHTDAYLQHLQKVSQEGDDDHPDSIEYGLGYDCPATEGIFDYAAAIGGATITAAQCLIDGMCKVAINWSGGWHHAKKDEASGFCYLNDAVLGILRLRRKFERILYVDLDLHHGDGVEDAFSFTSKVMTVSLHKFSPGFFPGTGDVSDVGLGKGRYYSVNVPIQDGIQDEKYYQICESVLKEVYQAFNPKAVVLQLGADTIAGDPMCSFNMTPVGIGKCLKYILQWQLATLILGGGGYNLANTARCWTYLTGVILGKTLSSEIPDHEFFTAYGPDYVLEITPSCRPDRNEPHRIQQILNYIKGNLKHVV

IC50 (Full length Human HDAC6) [µM]	Selectivity (6 v 8) (Full length Human HDAC6)	IC50 (Full length Human HDAC8) [µM]	SMILES
0.001 to 0.1	IV (IV: >100-1000)	10 to 100	O=C(NO)c1cc(F)c2c(c1)CCN(CC1CC3(CCN(C4CC4)CC3)C1)C2 [Compound 470, 2-[(7-cyclopropyl-7-azaspiro[3.5]nonan-2-yl)methyl]-8-fluoro-3,4-dihydro-1H-isoquinoline-6-carbohydroxamic acid]
0.1 to 1	III (III: >10-100)	10 to 100	CN1CCC[C@@]2(CC[C@H]2N2CCc3cc(C(=O)NO)cc(F)c3C2)C1 (single isomer, unassigned) [Compound 362]
0.1 to 1	III (III: >10-100)	10 to 100	CC[C@@H]1Cc2c(F)cc(C(=O)NO)cc2CN1C1CCCC1 (single isomer, unassigned) [Compound 580]
0.1 to 1	III (III: >10-100)	10 to 100	O=C(NO)c1cc(F)c2c(c1)CCN(C1CCC3(C1)CN(C1CC1)C3)C2 (stereo not drawn) [Compound 390, 2-(2-cyclopropyl-2-azaspiro[3.4]octan-6-yl)-8-fluoro-3,4-dihydro-1H-isoquinoline-6-carbohydroxamic acid]
0.001 to 0.1	V (V: >1000)	10 to 100	O=C(NO)c1cc(F)c2c(c1)CCN(C1CCC3(CC1)COC3)C2 [Compound 425, 8-fluoro-2-(2-oxaspiro[3.5]nonan-7-yl)-3,4-dihydro-1H-isoquinoline-6-carbohydroxamic acid]
0.001 to 0.1	V (V: >1000)	> 100	CN1CC2(CCC(N3CCc4cc(C(=O)NO)cc(F)c4C3)C2)C1 (stereo not drawn) [Compound 389, 8-fluoro-2-(2-methyl-2-azaspiro[3.4]octan-6-yl)-3,4-dihydro-1H-isoquinoline-6-carbohydroxamic acid]

The remaining lines, values behind:

SMILES	IC50 (Full length Human HDAC6) [µM]	Selectivity (6 v 8) (Full length Human HDAC6)	IC50 (Full length Human HDAC8) [µM]
O=C(NO)c1cc(F)c2c(c1)CCN(C1CC3(CCCO3)C1)C2 (single isomer, unassigned) [Compound 190, 8-fluoro-N-hydroxy-2-(5-oxaspiro[3.4]octan-2-yl)-1,2,3,4-tetrahydroisoquinoline-6-carboxamide]	0.001 to 0.1	IV (IV: >100-1000)	1 to 10
CN1[C@@H]2CC[C@H]1CC(CN1CCc3cc(C(=O)NO)cc(F)c3C1)C2 (single isomer, unassigned) [Compound 483]	0.001 to 0.1	IV (IV: >100-1000)	1 to 10
CN1CC[C@]2(CC[C@@H]2N2CCc3cc(C(=O)NO)cc(F)c3C2)C1 (single isomer, unassigned) [Compound 330]	0.001 to 0.1	IV (IV: >100-1000)	10 to 100
O=C(NO)c1cc(F)c2c(c1)CCN(C1CCC3(CCC3)CC1)C2 [Compound 192, 8-fluoro-2-spiro[3.5]nonan-7-yl-3,4-dihydro-1H-isoquinoline-6-carbohydroxamic acid]	0.001 to 0.1	V (V: >1000)	10 to 100
CN1CC2(CCC2N2CCc3cc(C(=O)NO)cc(F)c3C2)C1 (stereo not drawn) [Compound 302, 8-fluoro-2-(2-methyl-2-azaspiro[3.3]heptan-7-yl)-3,4-dihydro-1H-isoquinoline-6-carbohydroxamic acid]	0.001 to 0.1	IV (IV: >100-1000)	1 to 10
O=C(NO)c1ccc2c(c1)C[C@H]1CCCN1C2 [Compound 122]	0.1 to 1	III (III: >10-100)	1 to 10
O=C(NO)c1ccc2c(c1)CN1CCCC[C@H]1C2 [Compound 144]	0.1 to 1	III (III: >10-100)	10 to 100
O=C(NO)c1cc(F)c2c(c1)CCN(C1CCC13CCC3)C2 (stereo not drawn) [Compound 299, 8-fluoro-2-spiro[3.3]heptan-3-yl-3,4-dihydro-1H-isoquinoline-6-carbohydroxamic acid]	0.001 to 0.1	IV (IV: >100-1000)	10 to 100
